4 compounds from patent US20230406883A1, “COMPOUNDS AND THEIR USE IN TREATMENT OF TACHYKININ RECEPTOR MEDIATED DISORDERS” (Embark Biotech ApS, priority 2020, published 2023) can be followed below.

Test [1] deals with T1, hNK2R (Homo sapiens, UniProt P21452).
T1 construct: host or cells: COS-7
T1 sequence (P21452 1-398): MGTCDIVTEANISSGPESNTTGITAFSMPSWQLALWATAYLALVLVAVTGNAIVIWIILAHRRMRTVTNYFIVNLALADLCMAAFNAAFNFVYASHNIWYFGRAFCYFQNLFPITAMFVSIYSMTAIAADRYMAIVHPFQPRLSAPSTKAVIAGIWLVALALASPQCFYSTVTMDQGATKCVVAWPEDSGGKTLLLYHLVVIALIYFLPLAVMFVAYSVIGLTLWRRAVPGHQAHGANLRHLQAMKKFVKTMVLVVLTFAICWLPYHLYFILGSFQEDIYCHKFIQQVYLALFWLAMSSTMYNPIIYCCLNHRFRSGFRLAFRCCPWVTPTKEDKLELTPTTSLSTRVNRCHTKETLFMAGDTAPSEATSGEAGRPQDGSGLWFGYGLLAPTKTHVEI
Nature of the test: Hithunter cAMP assay (Gs-coupling) in transfected COS-7 cells. In kind it is cell-based. The note with it: for hNK2R, cAMP Efficacy / pEC50: COS-7 cells. How it is done: (§1) As a secondary measure of agonist-induced G-protein coupled receptor (GPCR) activation cyclin adenosine monophosphate (cAMP) was measured by the Hithunter cAMP-assay from DiscoverX. Assays were carried out using COS-7 cells transiently transfected by calcium phosphate transfection with a vector pcDNA3.1(+) encoding one of the indicated receptors (Genscript). Briefly, DNA mixed with CaCl2 (2 M) and TE-buffer (10 mM Tris-HCl, 1 mM EDTA, pH 7.5) was dropwise added to 2×HBS (50 mM HEPES, 280 mM NaCl, 1.5 mM NaH2PO4, pH 7.2) and incubated for 45 min at room temperature (22±2° C.). The mixture and a final concentration of 100 μM Chloroquine were added to the cells and left to incubate for 5 hours at 37° C. under standard cell culture conditions (10% CO2) before changing medium to fresh maintenance medium.
The cAMP-assay takes advantage of the tachykinin receptors' ability to induce production of the cAMP second messenger upon agonist (ligand) binding on receptor expressing cells. Production of cAMP stems from receptor coupling to Gs-protein although coupling to Gq-protein (IP3-production) is considered the primary signalling mechanism by tachykinin receptors.
The assay was performed the day after transfection. Briefly, maintenance medium was aspirated, and plates were washed ×1 in HBSS before adding assay buffer (HBSS+1 mM IBMX), pre-incubated for 30 min at 37° C. followed by 15 min incubation with agonist (ligand) at 37° C. After incubation, plates were subjected to cell lysis and anti-cAMP-antibody incubation as described by manufacturer. Luminescence was measured with EnVision Multimode Plate Reader from Perkin Elmer.

Test [2] addresses T1, hNK2R. The test is described as follows: 3H-NKA competitive binding on transfected COS-7 cells. Conditions: competition with 3H-NKA, 4 h at 4 C. The procedure:
as §1, with “Assays” for “As a secondary measure of agonist-induced G-protein coupled receptor (GPCR) activation cyclin adenosine monophosphate (cAMP) was measured by the Hithunter cAMP-assay from DiscoverX. Assays”
The ^3H-NKA binding assay measures peptide-receptor binding by a competitive principle of receptor binding between radioactively labelled (3H) NKA (tracer) and synthesized peptide ligands on live cells expressing the receptor of interest. Assay solutions used: TKR buffer (50 mM Tris/HCl pH 7.5, 5 mM MnCl2, and 150 mM NaCl), wash buffer (TKR buffer+0.2% w/v OvAlb), binding buffer (wash buffer+0.1 mg/ml Bacitracin), and tracer solution (binding buffer+˜15000 cpm/well ^3H-tracer). The assay was performed on ice the day after transfection.
Briefly, maintenance medium was aspirated, and plates were washed ×1 in cold wash buffer before adding 100 μl cold binding buffer and placing at 4° C. to let plates cool. The cold plates were added indicated peptides (ligand) immediately followed by addition of cold tracer solution (˜15000 cpm/well). Plates were immediately moved to 4° C. and incubated for 4 hours. After incubation, binding was stopped by wash ×2 with cold wash buffer before adding 225 μl Ultima Gold XR. Plates were shaken at medium speed for approximately 30 min and left overnight at room temperature before counting the plates in a MicroBeta plate counter (Perkin Elmer).

In the next test the target is T2, hNK3R (Homo sapiens, UniProt P29371).
T2 construct: host or cells: COS-7
T2 sequence (P29371 1-465): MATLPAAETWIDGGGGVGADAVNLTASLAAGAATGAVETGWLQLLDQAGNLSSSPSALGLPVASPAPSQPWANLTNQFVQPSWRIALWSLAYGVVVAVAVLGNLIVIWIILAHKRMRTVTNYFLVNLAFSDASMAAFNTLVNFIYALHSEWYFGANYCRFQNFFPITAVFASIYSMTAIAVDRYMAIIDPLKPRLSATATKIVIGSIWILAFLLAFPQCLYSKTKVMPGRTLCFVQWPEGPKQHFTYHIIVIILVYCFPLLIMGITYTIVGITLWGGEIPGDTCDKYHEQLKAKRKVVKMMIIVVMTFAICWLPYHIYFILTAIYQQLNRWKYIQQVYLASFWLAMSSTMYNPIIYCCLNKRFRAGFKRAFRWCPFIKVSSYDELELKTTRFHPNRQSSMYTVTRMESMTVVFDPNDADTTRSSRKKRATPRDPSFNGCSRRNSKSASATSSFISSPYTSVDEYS
Nature of the test: IP3 assay (inositol trisphosphate, 3H-myoinositol) in transiently transfected COS-7 cells. In kind it is cell-based. Conditions: COS-7 cells; for pEC50: 0.2% ovalbumin buffer, read-out: hNK3, IP3 EC50; for hNK3, IP3 Efficacy: figure legends: percent of 10^-6 M NKA. A digest of the protocol: (§2)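 COS-7 cells were transiently transfected with receptor plasmid and labelled with ³H-myo-inositol. Cells were lysed in formic acid, and ³H-inositol phosphates were captured on SPA YSI beads and counted.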

For test [3], the target named is T1, hNK2R. The test is described as above. The note with it: COS-7 cells; for pEC50: 0.2% ovalbumin buffer; for hNK2R, IP3 Efficacy: figure legends: percent of 10^-6 M NKA. Format: cell-based. A digest of the protocol: as §2
A further test has as its target T3, hNK1R (Homo sapiens, UniProt P25103).
T3 construct: host or cells: COS-7
The test is described as above. In kind it is cell-based. Conditions: COS-7 cells; for pEC50: 0.2% ovalbumin buffer; for hNK1R, IP3 Efficacy: figure legends: percent of 10^-6 M NKA. The procedure, abridged: as §2

In test [4] the target is T1, hNK2R. The test is described as follows: Indirect human serum albumin binding by IP3 assay, 0.2% ovalbumin vs 1% HSA. In kind it is cell-based. The procedure:
as §1, with “Agonist-induced” for “As a secondary measure of agonist-induced”, “activation” for “activation cyclin adenosine monophosphate (cAMP)”, “an Inositol-1,4,5-Trisphosphate [^3H] Radioreceptor Assay (IPs Assay).” for “the Hithunter cAMP-assay from DiscoverX.”, “medium containing 5 μl/mL Myo-[2-^3H(N)]-inositol (labeling medium).” for “maintenance medium.”
The indirect HSA binding IP3 assay takes advantage of the tachykinin receptors' ability to induce production of the inositol trisphosphate (IP3) second messenger upon agonist (ligand) binding on receptor expressing cells following an initial ^3H-inositol labeling period. The assay relies on the assumption that high peptide HSA binding will result in low receptor-mediated production of the second messenger IP3. Thus, the assay is an indirect assessment HSA binding.
Assay solutions used: Wash buffer (HBSS), Assay buffer 0.2% OvAlb (HBSS+10 mM LiCl and 0,2% w/v ovalbumin) or Assay buffer 1% HSA (HBSS+10 mM LiCl and 1% w/v HSA), Lysis buffer (10 mM formic acid), and SPA YSI beads (12.5 mg/ml in H2O). The assay was performed the day after transfection. Briefly, labelling medium was aspirated, and plates were washed ×1 in wash buffer before adding 100 μl assay buffer 0.2% OvAlb or assay buffer 1% HSA, pre-incubated for 30 min followed by 120 min incubation with agonist, both at 37° C. After incubation, plates were immediately placed on ice and the incubation medium was aspirated and 40 μl of 10 mM formic acid per well was added. Plates were incubated for at least 30 min on ice. 60 μl (1 mg/well) SPA YSI beads/well was pipetted into a solid white 96 wells plate and 35 μl of the lysis solution was transferred to the plate before covering plates with seal cover and shaking for 10 min. (max speed). Centrifuge plates and leave for 8 hours at room temperature before counting the plates in a MicroBeta plate counter (Perkin Elmer).

Structures are written as SMILES. pEC50: −log10 of the molar value. Values joined by “and” are separate entries in the source; they are usually repeats but may differ in a detail not shown here. Equal entries are not always repeated. Numbered stars: 1 amine (or outer) side, 2 acyl side, 3 side chain; on linkers, the order of the positions; unused ones are H or OH. Square brackets hold non-standard residues; d marks the D form. Peptide text beside a SMILES is read from it. * marks the point of attachment. C18 diacid = O=C(O)CCCCCCCCCCCCCCCCC(=O)*; Phe(4-F) = N[C@@H](Cc1ccc(F)cc1)C(=O)O; γGlu = O=C(O)[C@H](CCC(=O)[*:2])N[*:1]; Stearoyl = CCCCCCCCCCCCCCCCCC(=O)*; NMeL = CN[C@@H](CC(C)C)C(=O)O; hSer = N[C@@H](CCO)C(=O)O; Nle = CCCC[C@H](N)C(=O)O; AEEA = NCCOCCOCC(=O)O; Aib = CC(C)(N)C(=O)O

T3 sequence (P25103 whole entry): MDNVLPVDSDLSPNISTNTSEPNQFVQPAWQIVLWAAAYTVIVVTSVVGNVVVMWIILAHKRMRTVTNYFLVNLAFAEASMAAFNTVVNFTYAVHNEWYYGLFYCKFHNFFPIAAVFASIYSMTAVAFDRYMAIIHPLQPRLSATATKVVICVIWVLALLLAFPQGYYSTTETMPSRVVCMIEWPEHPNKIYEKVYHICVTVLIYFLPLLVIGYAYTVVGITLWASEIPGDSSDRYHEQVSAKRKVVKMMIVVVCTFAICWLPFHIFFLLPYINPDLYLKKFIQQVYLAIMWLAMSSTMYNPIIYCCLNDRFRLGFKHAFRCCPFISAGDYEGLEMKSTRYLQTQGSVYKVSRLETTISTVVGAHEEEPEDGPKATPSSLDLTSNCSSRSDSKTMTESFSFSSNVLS

Usually pEC50 stands for the negative decadic logarithm of the EC50, by convention in mol/L. As to `CCCC[C@H](NC(=O)[C@H](CC(C)C)N(C)C(=O)CNC(=O)[C@@H](NC(=O)[C@H](Cc1ccc(O)cc1)NC(=O)[C@H](CCCCN)NC(=O)[C@H](CCC(=O)O)NC(=O)COCCOCCNC(=O)COCCOCCNC(=O)CC[C@H](NC(=O)CCCCCCCCCCCCCCCCC(=O)O)C(=O)O)C(C)C)C(N)=O` [compound 336, *Glu;Lys;Tyr;Val;Gly;NmLeu;Nle;NH2] ({C18 diacid-γGlu-AEEA-AEEA}-EKYVG[NMeL][Nle]-NH2), on hNK2R [1], the “Gs activation (cAMP), in words” value is “does not activate Gs” and the “hNK2R, cAMP Efficacy” value is recorded as 0%. Also, at hNK2R [2], the pEC50 is 7.10. On hNK3R, the pEC50 was roughly 5.42; the “hNK3, IP3 Efficacy” value is 10% and 0%. On hNK2R [3], the negative-log EC50 (pEC50) was 8.40; the “hNK2R, IP3 Efficacy” value was 80% and 75%. Moreover, on hNK1R, the pEC50 is ~4.59 and ~4.57; the “hNK1R, IP3 Efficacy” value is 30% and 25%.

Regarding `COCC[C@H](NC(=O)[C@H](CC(C)C)NC(=O)C(C)(C)NC(=O)[C@@H](NC(=O)[C@H](Cc1ccc(O)cc1)NC(=O)[C@H](CCCCN)NC(=O)[C@H](CC(=O)O)NC(=O)COCCOCCNC(=O)COCCOCCNC(=O)CC[C@H](NC(=O)CCCCCCCCCCCCCCCCC(=O)O)C(=O)O)C(C)C)C(N)=O` [compound 394, *Asp;Lys;Tyr;Val;Aib;Leu;Metox;NH2] ({C18 diacid-γGlu-AEEA-AEEA}-DKYV[Aib]L[hSer](Me)-NH2), at hNK2R [1], the pEC50 was 6.51 and the “hNK2R, cAMP Efficacy” value worked out at 100%. For the same compound, the pEC50 on hNK2R [2] is roughly 6.97. Also, at hNK3R, the “hNK3, IP3 Efficacy” value amounted to 0%. Besides, at hNK2R [3], the pEC50 was 8.30 and the “hNK2R, IP3 Efficacy” value is recorded as 90%. At hNK1R, the pEC50 is roughly 6.03 and the “hNK1R, IP3 Efficacy” value is listed as 35%.

Consider `CC(C)C[C@@H](C(=O)N[C@@H](Cc1ccc(F)cc1)C(N)=O)N(C)C(=O)CNC(=O)[C@@H](NC(=O)[C@H](Cc1ccc(O)cc1)NC(=O)[C@H](CCCCN)NC(=O)[C@H](CC(=O)O)NC(=O)COCCOCCNC(=O)COCCOCCNC(=O)CC[C@H](NC(=O)CCCCCCCCCCCCCCCCC(=O)O)C(=O)O)C(C)C` [compound 369, *Asp;Lys;Tyr;Val;Gly;NmLeu;4-F-Phe;NH2] ({C18 diacid-γGlu-AEEA-AEEA}-DKYVG[NMeL][Phe(4-F)]-NH2), for which, on hNK2R [1], the pEC50 is 7.27 and the “hNK2R, cAMP Efficacy” value came to 80%. For the same compound, the pEC50 at hNK2R [2] was 7.12. At hNK3R, the pEC50 is roughly 6.72 and the “hNK3, IP3 Efficacy” value was determined as 25%. Further, on hNK2R [3], the pEC50 is 8.77 and the “hNK2R, IP3 Efficacy” value is given as 90%. For the same compound, on hNK1R, the pEC50 is roughly 6.60 and the “hNK1R, IP3 Efficacy” value is listed as 40%.

Broadly, the EC50 is the concentration giving half of the maximal effect. Turning to `CCCCCCCCCCCCCCCCCC(=O)N[C@@H](CCC(=O)NCCOCCOCC(=O)NCCOCCOCC(=O)N[C@@H](CC(=O)O)C(=O)N[C@@H](CCCCN)C(=O)N[C@@H](Cc1ccc(O)cc1)C(=O)N[C@H](C(=O)NCC(=O)N(C)[C@@H](CC(C)C)C(=O)N[C@@H](CCOC)C(N)=O)C(C)C)C(=O)O` [compound 391, *Asp;Lys;Tyr;Val;Gly;NmLeu;Metox;NH2] ({Stearoyl-γGlu-AEEA-AEEA}-DKYVG[NMeL][hSer](Me)-NH2), at hNK3R, the pEC50 was 8.40 and the “hNK3, IP3 Efficacy” value is reported as 100%. On hNK2R [3], the negative-log EC50 (pEC50) is 9.05 and the “hNK2R, IP3 Efficacy” value is recorded as 90%. For the same compound, on hNK1R, the pEC50 is 8.47 and the “hNK1R, IP3 Efficacy” value is listed as 100%. Moreover, at hNK2R [4] (0.2% ovalbumin), the “hNK2R, Albumin binding Efficacy (%)-ovalbumin” value is given as 100%. In addition, on hNK2R [4] (0.2% ovalbumin, read-out: hNK2R, Albumin binding EC50 (nM)-ovalbumin), the EC50 stood at 0.9 nM. Besides, on hNK2R [4] (1% HSA), the “hNK2R, Albumin binding Efficacy (%)-1% human serum albumin” value is 90%. Further, the EC50 at hNK2R [4] (1% HSA, read-out: hNK2R, Albumin binding EC50 (nM)-1% human serum albumin) was found to be 0.6 nM.
